These results are taken from ChEMBL document CHEMBL1151073, “Substituted 1,3,5-triazines as cholesteryl ester transfer protein inhibitors” (Bioorg Med Chem Lett, 1996).

The target in test [1] is T1, Cholesteryl ester transfer protein (Homo sapiens, UniProt P11597).
T1 sequence (P11597 whole entry): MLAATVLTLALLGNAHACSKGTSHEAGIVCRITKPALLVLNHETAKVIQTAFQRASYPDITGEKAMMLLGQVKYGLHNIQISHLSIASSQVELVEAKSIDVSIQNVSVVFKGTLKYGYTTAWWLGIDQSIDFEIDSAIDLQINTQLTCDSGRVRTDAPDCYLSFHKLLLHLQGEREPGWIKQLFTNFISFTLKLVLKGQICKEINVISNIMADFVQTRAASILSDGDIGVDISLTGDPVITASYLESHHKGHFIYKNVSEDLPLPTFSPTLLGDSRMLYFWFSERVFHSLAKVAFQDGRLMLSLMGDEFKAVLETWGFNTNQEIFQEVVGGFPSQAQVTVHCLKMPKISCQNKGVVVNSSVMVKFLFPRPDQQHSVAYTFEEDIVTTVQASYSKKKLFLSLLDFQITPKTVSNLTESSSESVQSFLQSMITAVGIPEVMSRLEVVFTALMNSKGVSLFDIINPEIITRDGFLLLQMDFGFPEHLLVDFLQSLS
The test can be described thus: Inhibition of Cholesteryl ester transfer protein.

Test [2] concerns the target T2, Cholesteryl ester transfer protein (Homo sapiens) (UniProt P11597).
T2 sequence (whole entry): T1 sequence (P11597 whole entry)
The test can be described thus: Compound was tested for inhibitory activity against Cholesteryl ester transfer protein at 50 uM.

pIC50: −log10 of the molar value.

In the case of `Clc1ccc(N2CCN(c3nc(Cc4ccc5ccccc5c4)nc(N4CCNCC4)n3)CC2)cc1`, in test [1], the pIC50 (commonly the IC50 on a negative log10 scale, so that one unit is a factor of ten) is 5.30.
On to `CCCCOc1nc(N2CCNCC2)nc(N2CCN(c3ccc(Cl)cc3)CC2)n1`, for which the inhibition (in general, the share of the control response that was lost under treatment) in test [2] was 57%.
For `Clc1ccc(N2CCN(c3nc(C#Cc4ccccc4)nc(N4CCNCC4)n3)CC2)cc1`, the negative logarithm of the IC50 (pIC50) in test [1] was 4.92.
Molecule `Oc1ccc(CCNc2nc(N3CCNCC3)nc(N3CCN(c4ccc(Cl)cc4)CC3)n2)cc1O` had a pIC50 in test [1] of 4.68. Against the preceding molecule, the pIC50 is 0.24 log units lower.
In the case of `Clc1ccc(N2CCN(c3nc(NCc4ccccc4)nc(N4CCNCC4)n3)CC2)cc1`, the inhibition in test [2] is 52%.
`Clc1ccc(Cc2nc(N3CCNCC3)nc(N3CCN(c4ccc(Cl)cc4)CC3)n2)cc1` gave a pIC50 in test [1] of 5.05.
In the case of `Clc1ccc(N2CCN(c3nc(N4CCNCC4)nc(N4CCc5ccccc5C4)n3)CC2)cc1`, the negative-log IC50 (pIC50) in test [1] is 5.30. Compared with the last molecule, the pIC50 is 0.25 log units higher.
Molecule `Clc1ccc(N2CCN(c3ncnc(N4CCNCC4)n3)CC2)cc1` had an inhibition in test [2] of 14%.
`Clc1ccc(N2CCN(c3nc(-c4ccccc4)nc(N4CCNCC4)n3)CC2)cc1` showed a negative-log IC50 (pIC50) in test [1] of 4.96.
Take `Clc1ccc(N2CCN(c3nc(N/N=C/c4ccccc4)nc(N4CCNCC4)n3)CC2)cc1`: the negative logarithm of the IC50 (pIC50) in test [1] is 5.00.
Same read-out and setting: as for `Clc1ccc(N2CCN(c3nc(NCCc4ccccc4)nc(N4CCNCC4)n3)CC2)cc1`, the figure is 4.35.
Turning to `Clc1ccc(N2CCN(c3nc(Cl)nc(N4CCNCC4)n3)CC2)cc1`, the inhibition in test [2] is 37%.
On to `COc1ccc(CCNc2nc(N3CCNCC3)nc(N3CCN(c4ccc(Cl)cc4)CC3)n2)cc1O`, for which, in test [1], the pIC50 is 4.80.
Turning to `CN(CCc1ccccc1)c1nc(N2CCNCC2)nc(N2CCN(c3ccc(Cl)cc3)CC2)n1`, the negative-log IC50 (pIC50) in test [1] was 5.22. This pIC50 lies 0.42 log units higher than the previous one.
`Oc1nc(N2CCNCC2)nc(N2CCN(c3ccc(Cl)cc3)CC2)n1` showed an inhibition in test [2] of 11%.
For `Clc1ccc(N2CCN(c3nc(Cc4ccccc4)nc(N4CCNCC4)n3)CC2)cc1`, the pIC50 in test [1] was 5.05.
Turning to `C=Cc1nc(N2CCNCC2)nc(N2CCN(c3ccc(Cl)cc3)CC2)n1`, the inhibition in test [2] came to 48%.
The same measure, in the same setting: the figure for `Clc1ccc(N2CCN(c3nc(OCCc4ccccc4)nc(N4CCNCC4)n3)CC2)cc1` is 66%.
`CCCCc1nc(N2CCNCC2)nc(N2CCN(c3ccc(Cl)cc3)CC2)n1` showed a negative-log IC50 (pIC50) in test [1] of 4.96.
